Reference: patent US9643991B2, “Process for preparing a novel crystalline form of emamectin benzoate and use the same” (ROTAM AGROCHEM INTERNATIONAL CO., LTD, priority 2015, dated 2017)

Columns and labels:
[1] = Stability of the crystalline modification during prolonged storage; type: physicochemical
[2] = Residue of diluted SG formulations passed through the wet sieve; type: physicochemical
Experimental: The procedure in Example 5 was repeated by using emamectin benzoate crystalline forms A and B mentioned in U.S. Pat. No. 6,486,195.
SG samples prepared in Examples 5 and 6 were diluted with water and their residues were compared by passing through the wet sieve.

[3] = cited from earlier work
[4] = system: Lepidoptera pole larvae and many other pests; conditions: cited from earlier work

| Substance | Conversion to other crystalline modifications [1] | Residue, Dilution factor 100 ([2]; SG samples of Examples 5 and 6 diluted with water, wet sieve, dilution factor 100) | Residue, Dilution factor 1000 ([2]; SG samples of Examples 5 and 6 diluted with water, wet sieve, dilution factor 1000) | Stability after dilution ([2]; after dilution, compared to other crystal forms) | Solubility in acetone ([3]; acetone) | Solubility in ethanol ([3]; ethanol) | Solubility in hexane ([3]; hexane) | Solubility in methanol ([3]; methanol) | Solubility in water ([3]; water) | Insecticidal activity higher than other avermectin pesticides ([4]; compared with abamectin, doramectin, ivermectin) | Effective dose ([4]; very low doses) |
| --- | --- | --- | --- | --- | --- | --- | --- | --- | --- | --- | --- |
| 4″-deoxy-4″-epi-methylamino avermectin B1a/B1b [Crystalline forms V] | does not convert to other crystalline modifications | No residue | No residue | extremely stable after dilution |  |  |  |  |  |  |  |
| 4″-deoxy-4″-epi-methylamino avermectin B1a/B1b [Emamectin benzoate] |  |  |  |  | soluble | soluble | insoluble | soluble | slightly soluble | 1-3 orders of magnitude | 0.084-2 g/ha |
